Measurements: patent US20140161720A1, “TREATMENT OF ANGIOGENIC- OR VASCULAR-ASSOCIATED DISEASES” (THE GENERAL HOSPITAL CORPORATION, priority 2011, published 2014)
“Also recorded” adds a separate entry of the source.

Experiments:
[1] = system: HUVEC; experiment: Scratch wound-healing motility assay; format: cell-based, human; conditions: HUVEC monolayer, DAL 5 μM, 24 hours after wounding
Method: (§1) For F-actin visualization, HUVECs were plated and treated with saline or DAL (10 μM) for three hours. After fixing and permeabilizing these cultured cells, the cells were subsequently stained with phalloidin. […] Existing cordlike structures, when exposed to 10 μM of DAL for 3 hours, were also disrupted. […] HUVEC monolayers were disrupted mechanically with a pipette tip and the migration of cells to “heal” the wound was monitored using microscopy.
To assess whether DAL affects EC functions, in vitro models of vascular network formation from HUVECs were used. After overnight cultivation in matrigel, HUVECs spontaneously assemble into cord-like structures that resemble vascular networks. […] Since DAL affects actin cytoskeleton assembly, the effect of DAL on cell motility was next assessed. A scratch wound assay was utilized to study HUVEC motility based on the healing rate of a wounded monolayer.

[2] = system: Rac1 mRNA; experiment: Rac1 mRNA expression by quantitative PCR; format: cell-based
[3] = system: Rac1; experiment: Rac1 protein level by western blot in HUVECs; format: cell-based, human; conditions: HUVEC, 10 μM for 24 hours
Method: (§2) HUVEC cells were treated with 10 μM of DAL for 24 hours and then lysed. A western blot with anti-human Rac1 antibody is shown on top panel while the bottom panel represents a loading control. […] To enhance ubiquitination events, HUVEC cells were pretreated with the proteasome inhibitors lactacystin (2.5 mM) or MG-132 (0.2 mM) for one hour and subsequently treated with DAL (10 μM) of DAL for 24 hours. Duolink in situ was used for the detection of ubiquitinated Rac1 in DAL treated and untreated HUVEC cells. For the two Duolink PLA probes, primary mouse antibodies raised against human Rac1 and primary rabbit anti-ubiquitin were used. Fluorescent spots represent ubiquitinated Rac1. The nuclei with additionally stained DAPI.
(§3) However, protein levels of Rac1 were reduced after DAL treatment (FIG. 6B). Next, it was assessed whether DAL can enhance Rac1 ubiquitination and therefore promote or speed up degradation (31-34). For the detection of Rac1 ubiquitination in HUVECs, Rac1-ubiquitin binding in situ was identified using a Duolink molecular proximity assay. In this assay, molecules thought to interact are targeted with fluorescent antibodies in situ, and individual interactions generate a signal detectable by microscopy only if secondary antibodies are located in close proximity to each other. […]

[4] = system: Rac1; experiment: Rac1 ubiquitination, Duolink in situ proximity assay in HUVECs; format: cell-based, human; conditions: HUVEC, lactacystin or MG-132 pretreatment, DAL 10 μM 24 hours
Method: as §2, §3

[5] = system: HUVEC; experiment: F-actin visualization and cell shape in HUVECs (phalloidin); format: cell-based, human; conditions: 10 μM, three hours
Method: as §1
To gain further insight into the anti-vascular effects of DAL and to assess the involvement of DAL in modulating actin assembly, normal human umbilical vein endothelial cells(HUVEC) were plated and treated with 10 μM DAL for three hours. The cells were fixed, permeabilized, and subsequently stained with phalloidin to visualize F-actin (FIG. 5A).

[6] = system: orthotopic E0771 mammary tumors; experiment: Tumor growth delay study, E0771; format: in vivo, female SCID mice; conditions: start ~100 mm^3, 37.5 mg/kg daily i.p.
Method: To assess the anti-tumor effects of DAL, female SCID mice bearing orthotopic 4T1 or E0771 mammary tumors were treated with daily i.p. injections of 37.5 mg/kg DAL or saline. In order to calculate tumor volumes, the major and minor axis diameters were measured with calipers and the tumor volume was calculated by assuming a spherical shape based on the average of these two dimensions. The tumors were implanted in the mammary fat pad and allowed to grow to a starting size (small ˜100 mm^3 tumors for E0771, large ˜200 mm^3 tumors for 4T1) over ˜2 weeks. To ensure that tumors in the two groups were of similar growth rates, the treatment with saline or DAL was begun in pairs of tumors with similar sizes and growth times. Tumor volumes were measured every other day until the tumors reached an average of ˜10 mm in diameter. Tumor growth was quantified with the doubling rate, and calculated by fitting an exponential growth curve to the data for tumor size versus time.
As shown in Example 3, DAL has an antivascular effect in orthotopic mammary tumors in mice. Thus, the antitumor effect of DAL was next assessed. […] The effect of DAL on the growth of orthotopic 4T1 and E0771 mammary tumors with daily treatment of DAL or saline was evaluated (FIG. 4A). 37.5 mg/kg of DAL was used for these experiments based on the pharmacokinetics results as well as in vitro and in vivo data. […]

Question: What does the source list for `CC1(C)C=CC2=C(O1)C(=O)c1ccccc1C2=O` [DAL, dehydro-alpha-lapachone]?
Answer: wound healing / cell motility [1]: did not move and failed to close the wound; also recorded: slowed healing; expression levels of Rac1 mRNA [2]: did not change; protein levels of Rac1 [3]: reduced; also recorded: decreases; Rac1 ubiquitination [4]: more ubiquitinated Rac1 protein; also recorded: increases; cell size and shape [5]: smaller than untreated control cells and had a rounded shape; F-actin organization ([5]; phalloidin): actin present only as small fibers and spots throughout the cells or accumulated close to the nuclei; tumor volume doubling time [6]: 4.77 ± 0.58 days
